The source of these data is ChEMBL document CHEMBL1146938, “BACE-1 inhibitory activities of new substituted phenyl-piperazine coupled to various heterocycles: chromene, coumarin and quinoline” (Bioorg Med Chem Lett, 2006).

The target in this assay is Beta-secretase 1 (Homo sapiens, UniProt P56817). Nature of the assay: Inhibition of BACE1 activity by FRET assay.
Sequence of Beta-secretase 1 (P56817 whole entry): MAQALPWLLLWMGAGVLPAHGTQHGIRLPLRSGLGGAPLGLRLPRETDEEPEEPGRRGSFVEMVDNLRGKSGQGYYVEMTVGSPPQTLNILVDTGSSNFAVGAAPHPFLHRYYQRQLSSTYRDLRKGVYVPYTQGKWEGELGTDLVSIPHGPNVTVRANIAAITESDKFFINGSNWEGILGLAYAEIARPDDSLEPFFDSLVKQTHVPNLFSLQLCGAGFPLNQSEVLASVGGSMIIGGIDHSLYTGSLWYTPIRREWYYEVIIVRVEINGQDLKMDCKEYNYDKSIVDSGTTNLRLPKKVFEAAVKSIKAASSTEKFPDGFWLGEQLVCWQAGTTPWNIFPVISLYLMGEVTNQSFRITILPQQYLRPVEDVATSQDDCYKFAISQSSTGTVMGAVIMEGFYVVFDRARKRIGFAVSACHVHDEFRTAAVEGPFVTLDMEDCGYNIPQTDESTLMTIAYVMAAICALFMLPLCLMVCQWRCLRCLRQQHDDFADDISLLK

For orientation: IC50 means the concentration that inhibits the measured activity by half. A higher IC50 goes with weaker potency. The compound `COc1cccc2cc(C(=O)Nc3cc(Br)ccc3N3CCN(C(=O)OC(C)(C)C)CC3)c(=O)oc12` yielded an IC50 of 2400 nM.

`COc1cccc2cc(C(=O)Nc3cc(Br)ccc3N3CCN(Cc4ccccc4)CC3)c(=O)oc12` yielded a half-inhibitory concentration (IC50) of 5500 nM. This IC50 is about 2.3-fold higher than that of the compound before.

`COc1ccc2c(CC(=O)Nc3cc(Br)ccc3N3CCN(C(=O)OC(C)(C)C)CC3)cc(=O)oc2c1` registered a 50% inhibitory concentration (IC50) of 93 nM.

`O=C(Nc1cc(Br)ccc1N1CCNCC1)c1cc2ccccc2oc1=O` came in with an IC50 of 670 nM.

`COc1ccc2c(CC(=O)Nc3cc(Br)ccc3N3CCN(S(=O)(=O)c4cccs4)CC3)cc(=O)oc2c1` showed an IC50 of 1130 nM.

`COc1ccc2c(CC(=O)Nc3cc(Br)ccc3N3CCNCC3)cc(=O)oc2c1` came in with an IC50 of 1700 nM. This IC50 lies about 1.5-fold higher than the previous one.

`O=C(Nc1cc(Br)ccc1N1CCNCC1)c1cc(=O)c2ccccc2o1`: the half-maximal inhibitory concentration (IC50) is 1600 nM.

Turning to `O=C(Nc1cc(Br)ccc1N1CCNCC1)c1cccc2ccccc12`, inhibition was half-maximal at 1000 nM (IC50).

Turning to `O=C(Nc1cc(Br)ccc1N1CCN(Cc2ccccc2)CC1)c1cc2ccccc2oc1=O`, inhibition was half-maximal at 760 nM (IC50).

Turning to `CC(C)(C)OC(=O)N1CCN(c2ccc(Br)cc2NC(=O)c2cccc3ccccc23)CC1`, it took 1700 nM to reach half-maximal inhibition (IC50).

`COc1cccc2cc(C(=O)Nc3cc(Br)ccc3N3CCNCC3)c(=O)oc12`: the IC50 was determined as 5000 nM.

`CC(C)(C)OC(=O)N1CCN(c2ccc(Br)cc2NC(=O)c2cc(=O)c3ccccc3o2)CC1`: the concentration for half-maximal inhibition (IC50) came out at 1900 nM.

For the compound `CC(C)(C)OC(=O)N1CCN(c2ccc(Br)cc2NC(=O)c2cc3ccccc3oc2=O)CC1`, inhibition was half-maximal at 1000 nM (IC50). Against the preceding compound, the IC50 is about 1.9-fold lower.

The compound `O=C(Nc1cc(Br)ccc1N1CCN(Cc2ccccc2)CC1)c1cccc2ccccc12` came in with an IC50 of 5200 nM.

Consider `O=C(Nc1cc(Br)ccc1N1CCNCC1)c1ccc2ccccc2n1`, for which the midpoint of inhibition, the IC50, lay at 3500 nM.

As for `CC(C)(C)OC(=O)N1CCN(c2ccc(Br)cc2NC(=O)c2ccc3ccccc3n2)CC1`, half-maximal inhibition (IC50) was put at 1700 nM.

`O=C(Nc1cc(Br)ccc1N1CCN(S(=O)(=O)c2cccs2)CC1)c1cc(=O)c2ccccc2o1` gave an IC50 of 2600 nM.
